Test results: ChEMBL document CHEMBL6087483 (J Med Chem, 2025)
Blank lines part the entries; values can stand above or below the compound they belong to. The source made the active and inactive calls. The calls are words filed in the database; no cut-off is given here.

Columns and labels:
HCT-116 [1] = experiment: Antiproliferative activity against MTAP deleted human HCT-116 cells assessed as inhibition of cell viability by luminescence based cell titer-glo assay; format: functional
HCT-116 [2] = experiment: Antiproliferative activity against MTAP wild type human HCT-116 cells assessed as inhibition of cell viability by luminescence based cell titer-glo assay; format: functional
[3] = Oral bioavailability in male Sprague-Dawley rat at 5 mg/kg or 1 mg/kg, iv measured upto 24 hrs; format: ADME, organism-based; conditions: in vivo
[4] = Volume of distribution at steady state in male Sprague-Dawley rat at 5 mg/kg, po or 1 mg/kg, iv measured upto 24 hrs; format: ADME, organism-based; conditions: in vivo
[5] = Oral bioavailability in male CD-1 mouse at 5 mg/kg or 1 mg/kg, iv measured upto 24 hrs; format: ADME, organism-based; conditions: in vivo
[6] = AUC (0 to 24 hrs) in male Sprague-Dawley rat at 5 mg/kg, po or 1 mg/kg, iv measured upto 24 hrs; format: ADME, organism-based; conditions: in vivo
[7] = Volume of distribution at steady state in male CD-1 mouse at 5 mg/kg, po or 1 mg/kg, iv measured upto 24 hrs; format: ADME, organism-based; conditions: in vivo
[8] = Cmax in male CD-1 mouse at 5 mg/kg, po or 1 mg/kg, iv measured upto 24 hrs; format: ADME, organism-based; conditions: in vivo
[9] = Selectivity ratio of IC50 for antiproliferative activity against MTAP wild type human HCT-116 cells to IC50 for antiproliferative activity against MTAP deleted human HCT-116 cells; format: functional
[10] = Cmax in male Sprague-Dawley rat at 5 mg/kg, po or 1 mg/kg, iv measured upto 24 hrs; format: ADME, organism-based; conditions: in vivo
[11] = AUC (0 to 24 hrs) in male CD-1 mouse at 5 mg/kg, po or 1 mg/kg, iv measured upto 24 hrs; format: ADME, organism-based; conditions: in vivo
[12] = target: T1, Protein arginine N-methyltransferase 5 (Homo sapiens, UniProt O14744); experiment: Inhibition of PRMT5 in MTAP deleted human Lu-99 cell line assessed as reduction in SDMA level at upto 1000 nM measured after 5 days by Western blot analysis; format: cell-based; conditions: time 5.0 day
T1 sequence (O14744 whole entry): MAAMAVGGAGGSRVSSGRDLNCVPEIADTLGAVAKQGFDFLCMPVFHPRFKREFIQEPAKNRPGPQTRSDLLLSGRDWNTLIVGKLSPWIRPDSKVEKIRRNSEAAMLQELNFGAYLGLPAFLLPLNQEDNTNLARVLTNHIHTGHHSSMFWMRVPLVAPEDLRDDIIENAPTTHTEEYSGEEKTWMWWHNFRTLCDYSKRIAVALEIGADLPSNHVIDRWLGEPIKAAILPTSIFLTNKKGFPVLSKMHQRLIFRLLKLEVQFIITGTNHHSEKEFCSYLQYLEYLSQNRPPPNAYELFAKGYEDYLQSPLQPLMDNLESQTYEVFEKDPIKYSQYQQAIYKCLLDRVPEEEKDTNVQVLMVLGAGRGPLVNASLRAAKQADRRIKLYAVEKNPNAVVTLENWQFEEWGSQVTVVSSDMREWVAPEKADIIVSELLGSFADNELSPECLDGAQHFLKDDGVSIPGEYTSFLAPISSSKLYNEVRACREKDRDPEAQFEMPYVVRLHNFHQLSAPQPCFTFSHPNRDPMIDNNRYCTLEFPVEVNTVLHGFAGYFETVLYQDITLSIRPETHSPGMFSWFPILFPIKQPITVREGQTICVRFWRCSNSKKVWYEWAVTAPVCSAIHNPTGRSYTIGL

[13] = target: T1, Protein arginine N-methyltransferase 5; experiment: Inhibition of PRMT5 (unknown origin)
[14] = target: T1, Protein arginine N-methyltransferase 5; experiment: Inhibition of PRMT5 in MTAP deleted human Lu-99 cell line assessed as increase in p21 level at upto 1000 nM measured after 5 days by Western blot analysis; format: cell-based; conditions: time 5.0 day
[15] = Antiproliferative activity against MTAP wild type human KURAMOCHI cells assessed as inhibition of cell viability measured after 10 days by luminescence based cell titer-glo assay; format: functional; conditions: 240 h
Lu-99 cell line [16] = experiment: Antitumor activity against human Lu-99 cell line xenografted in female BALB/c nude mouse model assessed as tumor growth inhibition at 200 mg/kg administered once daily via oral gavage and measured upto 21 days by caliper method relative to control; format: functional; design: scale not given: the % may be the effect or the level left; conditions: time <= 21 day
[17] = Toxicity in female BALB/c nude mouse assessed as drug tolerance at 25 to 200 mg/kg, po administered once daily for 21 days; format: organism-based; conditions: in vivo, 504 h, dose 25-200 mg/kg, time 21 day
[18] = target: T1, Protein arginine N-methyltransferase 5; experiment: In vivo inhibition of PRMT5 in female BALB/c nude mouse xenografted with human Lu-99 cell line assessed as inhibition of SDMA level at 25 mg/kg administered once daily via oral gavage by Western blot analysis relative to control; format: functional, organism-based; design: scale not given: the % may be the effect or the level left
[19] = target: T1, Protein arginine N-methyltransferase 5; experiment: Inhibition of PRMT5 (unknown origin) in presence of MTA
Lu-99 cell line [20] = experiment: Antitumor activity against human Lu-99 cell line xenografted in female BALB/c nude mouse model assessed as tumor growth inhibition at 50 mg/kg administered once daily via oral gavage and measured upto 21 days by caliper method relative to control; format: functional; design: scale not given: the % may be the effect or the level left; conditions: time <= 21 day
[21] = Antiproliferative activity against MTAP null human HCC15 cells assessed as inhibition of cell viability measured after 10 days by luminescence based cell titer-glo assay; format: functional; conditions: HCC15, 240 h
[22] = target: T1, Protein arginine N-methyltransferase 5; experiment: In vivo inhibition of PRMT5 in female BALB/c nude mouse xenografted with human Lu-99 cell line assessed as inhibition of SDMA level administered once daily via oral gavage by Western blot analysis; format: functional, organism-based; conditions: dose 25-200 mg/kg
Lu-99 cell line [23] = experiment: Antitumor activity against human Lu-99 cell line xenografted in female BALB/c nude mouse model assessed as tumor growth inhibition administered once daily via oral gavage and measured upto 21 days by caliper method; format: functional; conditions: dose 25-200 mg/kg, time <= 21.0 day
Lu-99 cell line [24] = experiment: Antitumor activity against human Lu-99 cell line xenografted in female BALB/c nude mouse model assessed as tumor growth inhibition at 25 mg/kg administered once daily via oral gavage and measured upto 21 days by caliper method relative to control; format: functional; design: scale not given: the % may be the effect or the level left; conditions: time <= 21 day
DOHH-2 = experiment: Antiproliferative activity against MTAP null human DOHH-2 cells assessed as inhibition of cell viability measured after 10 days by luminescence based cell titer-glo assay; format: functional; conditions: DOHH-2, 240 h
Lu-99 cell line [25] = experiment: Antitumor activity against human Lu-99 cell line xenografted in female BALB/c nude mouse model assessed as tumor growth inhibition at 100 mg/kg administered once daily via oral gavage and measured upto 21 days by caliper method relative to control; format: functional; design: scale not given: the % may be the effect or the level left; conditions: time <= 21 day
[26] = Antiproliferative activity against MTAP null human NCI-H647 cells assessed as inhibition of cell viability measured after 10 days by luminescence based cell titer-glo assay; format: functional; conditions: NCI-H647, 240 h
[27] = target: T1, Protein arginine N-methyltransferase 5; experiment: Inhibition of PRMT5 in MTAP deleted human Lu-99 cell line assessed as decrease pRb (Ser807/811) level at upto 1000 nM measured after 5 days by Western blot analysis; format: cell-based; conditions: time 5.0 day
[28] = target: T1, Protein arginine N-methyltransferase 5; experiment: Inhibition of PRMT5 in MTAP deleted human Lu-99 cell line assessed as increase in gammaH2AX level at upto 1000 nM measured after 5 days by Western blot analysis; format: cell-based; conditions: time 5.0 day
[29] = Cmax in male Beagle dog at 3 mg/kg, po or 1 mg/kg, iv measured upto 24 hrs; format: ADME, organism-based, Canis lupus familiaris; conditions: in vivo
Lu-99 cell line [30] = experiment: Antiproliferative activity against MTAP null human Lu-99 cell line assessed as inhibition of cell viability measured after 10 days by luminescence based cell titer-glo assay; format: functional; conditions: Lu-99, 240 h
BT-20 = experiment: Antiproliferative activity against MTAP wild type human BT-20 cells assessed as inhibition of cell viability measured after 10 days by luminescence based cell titer-glo assay; format: functional; conditions: BT-20, 240 h
[31] = target: T1, Protein arginine N-methyltransferase 5; experiment: In vivo inhibition of PRMT5 in female BALB/c nude mouse xenografted with human Lu-99 cell line assessed as inhibition of SDMA level at 50 mg/kg administered once daily via oral gavage by Western blot analysis relative to control; format: functional, organism-based; design: scale not given: the % may be the effect or the level left
HCC95 = experiment: Antiproliferative activity against MTAP wild type human HCC95 cells assessed as inhibition of cell viability measured after 10 days by luminescence based cell titer-glo assay; format: functional; conditions: HCC95, 240 h
MDA-MB-436 = experiment: Antiproliferative activity against MTAP wild type human MDA-MB-436 cells assessed as inhibition of cell viability measured after 10 days by luminescence based cell titer-glo assay; format: functional; conditions: MDA-MB-436, 240 h
[32] = AUC (0 to 24 hrs) in male Beagle dog at 3 mg/kg, po or 1 mg/kg, iv measured upto 24 hrs; format: ADME, organism-based, Canis lupus familiaris; conditions: in vivo
[33] = Toxicity in female BALB/c nude mouse assessed as effect on body weight loss at 25 to 200 mg/kg, po administered once daily for 21 days; format: organism-based; conditions: in vivo, 504 h, dose 25-200 mg/kg, time 21 day
[34] = target: T1, Protein arginine N-methyltransferase 5; experiment: In vivo inhibition of PRMT5 in female BALB/c nude mouse xenografted with human Lu-99 cell line assessed as inhibition of SDMA level at 100 mg/kg administered once daily via oral gavage by Western blot analysis relative to control; format: functional, organism-based; design: scale not given: the % may be the effect or the level left
[35] = target: T1, Protein arginine N-methyltransferase 5; experiment: In vivo inhibition of PRMT5 in female BALB/c nude mouse xenografted with human Lu-99 cell line assessed as inhibition of SDMA level at 200 mg/kg administered once daily via oral gavage by Western blot analysis relative to control; format: functional, organism-based; design: scale not given: the % may be the effect or the level left
[36] = Volume of distribution at steady state in male Beagle dog at 3 mg/kg, po or 1 mg/kg, iv measured upto 24 hrs; format: ADME, organism-based, Canis lupus familiaris; conditions: in vivo
[37] = Oral bioavailability in male Beagle dog at 3 mg/kg or 1 mg/kg, iv measured upto 24 hrs; format: ADME, organism-based, Canis lupus familiaris; conditions: in vivo

SMILES: CN(C(=O)c1ccc2nc(N)c3c(c2c1)COC3)[C@@H]1CCN(c2ccc(S(C)(=O)=O)cc2)C1
IC50 (HCT-116 [1]): 641 nM
IC50 (HCT-116 [2]): > 10000 nM

SMILES: CN(C(=O)c1ccc2nc(N)c3c(c2c1)COC3)[C@H]1CCN(c2ccccc2)C1
IC50 (HCT-116 [1]): 2000 nM

SMILES: CN(C(=O)c1ccc2nc(N)c3c(c2c1)COC3)[C@@H]1CCN(c2ccc(C3CC3)cc2)C1
IC50 (HCT-116 [1]): 1570 nM

SMILES: Nc1nc2ccc(C(=O)N3C[C@H]4C[C@@H]3CN4c3ccccc3)cc2c2c1COC2
IC50 (HCT-116 [1]): 2450 nM

SMILES: N#Cc1ccc(N2C[C@@H]3C[C@H]2CN3C(=O)c2ccc3nc(N)c4c(c3c2)COC4)cc1
IC50 (HCT-116 [1]): 3170 nM

SMILES: CN(C(=O)c1ccc2nc(N)c3c(c2c1)COC3)C1CCN(c2ccccc2)CC1
IC50 (HCT-116 [1]): 3890 nM

SMILES: CN(C(=O)c1ccc2nc(N)c3c(c2c1)COC3)[C@H]1CCCN(c2ccccc2)C1
IC50 (HCT-116 [1]): 6060 nM

SMILES: CN(C(=O)c1cc2c3c(c(N)nc2cc1F)COC3)[C@@H]1CCN(c2ccc(C#N)cc2)C1
inhibition [12]: Active
IC50 [13]: 68 nM
inhibition [14]: Active
IC50 [15]: 2960 nM
IC50 (HCT-116 [1]): 15 nM
Activity (Lu-99 cell line [16]): 102%
bioavailability [3]: 81%
Activity [17]: Non-toxic
Activity [18]: 43%
IC50 [19]: 4.7 nM
Activity (Lu-99 cell line [20]): 76%
IC50 [21]: 6.6 nM
Vdss [4]: 1.52 L/kg
bioavailability [5]: 105%
Activity [22]: Dose-dependent-effect
Activity (Lu-99 cell line [23]): Dose-dependent-effect
Activity (Lu-99 cell line [24]): 71%
AUC [6]: 5610 ng·h/mL
IC50 (DOHH-2): 20.9 nM
Activity (Lu-99 cell line [25]): 94%
IC50 [26]: 118 nM
inhibition [27]: Active
Cmax [8]: 1720 ng/mL
inhibition [28]: Active
Cmax [29]: 804 ng/mL
IC50 (Lu-99 cell line [30]): 21.9 nM
IC50 (BT-20): > 10000 nM
Activity [31]: 49%
IC50 (HCC95): 2740 nM
IC50 (MDA-MB-436): 4870 nM
AUC [32]: 6140 ng·h/mL
Activity [33]: Non-toxic
Activity [34]: 68%
Cmax [10]: 1020 ng/mL
AUC [11]: 6900 ng·h/mL
Activity [35]: 85%
IC50 (HCT-116 [2]): 1900 nM
Vdss [36]: 1.87 L/kg
bioavailability [37]: 82.5%

Second part, led by results:

IC50 (HCT-116 [1]): 137 nM
IC50 (HCT-116 [2]): 9350 nM
SMILES: CN(C(=O)c1cc2c3c(c(N)nc2cn1)COC3)[C@@H]1CCN(c2ccc(C#N)cc2)C1

IC50 (HCT-116 [1]): 7 nM
bioavailability [3]: 46.1%
Vdss [4]: 1.29 L/kg
bioavailability [5]: 83.1%
AUC [6]: 2310 ng·h/mL
Vdss [7]: 2.84 L/kg
Cmax [8]: 611 ng/mL
Cmax [10]: 496 ng/mL
AUC [11]: 1720 ng·h/mL
IC50 (HCT-116 [2]): 1180 nM
SMILES: Cc1cc2nc(N)c3c(c2cc1C(=O)N(C)[C@@H]1CCN(c2ccc(C#N)cc2)C1)COC3
Ratio IC50 [9]: 169

IC50 (HCT-116 [1]): 719 nM
SMILES: Nc1nc2ccc(C(=O)N3C[C@@H]4C[C@H]3CN4c3ccccc3)cc2c2c1COC2

IC50 (HCT-116 [1]): 451 nM
IC50 (HCT-116 [2]): > 10000 nM
SMILES: CN(C(=O)c1ccc2nc(N)c3c(c2c1)COC3)[C@@H]1CCN(c2ccc(C3=CCOCC3)cc2)C1

IC50 (HCT-116 [1]): 211 nM
IC50 (HCT-116 [2]): > 10000 nM
SMILES: CN(C(=O)c1ccc2nc(N)c3c(c2c1)COC3)[C@@H]1CCN(c2ccc(-c3cnn(C)c3)cc2)C1
